In patent US20070276025A1, “Indirubin-Type Compounds, Compositions, and Methods for Their Use” (priority 2003, published 2007):
pEC50, pIC50: −log10 of the molar value. Read-outs that look alike come from different tables or passages of the source.

Key:
CDK1/cyclin B = CDK1/cyclin B kinase assay (histone H1, 15 μM ATP); format: biochemical, starfish (Marthasterias glacialis)
GSK-3α/β = GSK-3α/β kinase assay (GS-1 peptide, 15 μM ATP); format: biochemical, porcine
CDK5/p25 = CDK5/p25 (Homo sapiens, UniProt Q00535); assay: CDK5/p25 kinase assay (histone H1, 15 μM ATP); format: biochemical, mammalian
AhR [1] = molecular target: T1, AhR (Mus musculus, UniProt P30561); conditions: read-out: EC50 AhR (hepatoma cell line); Table 4; EGFP at 24 hours
T1 sequence (P30561 1-848): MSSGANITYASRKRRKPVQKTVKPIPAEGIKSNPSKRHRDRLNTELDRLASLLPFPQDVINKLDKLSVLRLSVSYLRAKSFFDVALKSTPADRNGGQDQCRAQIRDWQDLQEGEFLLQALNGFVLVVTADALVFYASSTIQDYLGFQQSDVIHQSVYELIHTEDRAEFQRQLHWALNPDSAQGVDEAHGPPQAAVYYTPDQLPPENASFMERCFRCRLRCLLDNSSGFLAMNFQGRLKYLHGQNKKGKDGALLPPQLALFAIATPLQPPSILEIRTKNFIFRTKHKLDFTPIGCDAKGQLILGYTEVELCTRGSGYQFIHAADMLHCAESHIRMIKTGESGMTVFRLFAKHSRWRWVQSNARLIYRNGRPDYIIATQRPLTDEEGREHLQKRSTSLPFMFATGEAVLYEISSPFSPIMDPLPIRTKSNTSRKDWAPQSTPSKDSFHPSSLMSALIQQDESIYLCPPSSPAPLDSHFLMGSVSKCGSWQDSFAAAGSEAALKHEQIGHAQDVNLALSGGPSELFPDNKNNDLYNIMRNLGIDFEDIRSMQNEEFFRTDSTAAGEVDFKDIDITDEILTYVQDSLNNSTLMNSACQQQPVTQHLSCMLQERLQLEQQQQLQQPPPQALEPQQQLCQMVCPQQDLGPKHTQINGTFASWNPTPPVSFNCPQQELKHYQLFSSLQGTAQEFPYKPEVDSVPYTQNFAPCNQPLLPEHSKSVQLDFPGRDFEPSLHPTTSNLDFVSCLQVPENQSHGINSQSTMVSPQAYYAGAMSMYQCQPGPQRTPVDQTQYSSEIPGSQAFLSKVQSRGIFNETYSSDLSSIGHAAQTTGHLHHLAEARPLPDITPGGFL

AhR [2] = molecular target: T2, AhR (Homo sapiens, UniProt P35869); assay: Yeast AhR reporter assay (β-galactosidase); conditions: read-out: EC50 AhR (yeast); Table 4; * = inactive at the indicated highest concentration tested
AhR [3] = molecular target: T2, AhR
[4] = Table 5, read-out: IC50 CDK1/cyclin B
[5] = Table 5, read-out: IC50 GSK-3α/β
[6] = Table 7, GSK-3, read-out: IC50exp
[7] = Table 5, read-out: IC50 CDK5/p25
[8] = Table 4, read-out: IC50 CDK1/cycin B
[9] = Table 1, read-out: IC50 CDK5/p25

CDK5/p25, sequence (Q00535 whole entry, species assumed): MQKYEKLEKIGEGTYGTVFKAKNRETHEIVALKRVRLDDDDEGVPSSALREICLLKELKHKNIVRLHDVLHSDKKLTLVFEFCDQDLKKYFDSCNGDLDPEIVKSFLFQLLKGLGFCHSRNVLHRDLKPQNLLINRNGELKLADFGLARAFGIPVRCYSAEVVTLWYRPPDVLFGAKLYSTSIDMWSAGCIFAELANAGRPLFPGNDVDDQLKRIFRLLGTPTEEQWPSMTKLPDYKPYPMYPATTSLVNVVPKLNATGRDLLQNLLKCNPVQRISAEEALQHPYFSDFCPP
CDK5/p25, sequence (Q15078 99-307 partner limits assumed, species assumed): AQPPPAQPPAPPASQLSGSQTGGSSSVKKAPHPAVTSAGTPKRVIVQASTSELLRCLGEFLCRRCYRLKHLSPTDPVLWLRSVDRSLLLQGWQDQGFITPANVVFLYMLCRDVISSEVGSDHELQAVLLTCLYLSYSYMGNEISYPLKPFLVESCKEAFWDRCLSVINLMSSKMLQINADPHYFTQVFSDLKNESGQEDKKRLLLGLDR
T2 sequence (P35869 11-848): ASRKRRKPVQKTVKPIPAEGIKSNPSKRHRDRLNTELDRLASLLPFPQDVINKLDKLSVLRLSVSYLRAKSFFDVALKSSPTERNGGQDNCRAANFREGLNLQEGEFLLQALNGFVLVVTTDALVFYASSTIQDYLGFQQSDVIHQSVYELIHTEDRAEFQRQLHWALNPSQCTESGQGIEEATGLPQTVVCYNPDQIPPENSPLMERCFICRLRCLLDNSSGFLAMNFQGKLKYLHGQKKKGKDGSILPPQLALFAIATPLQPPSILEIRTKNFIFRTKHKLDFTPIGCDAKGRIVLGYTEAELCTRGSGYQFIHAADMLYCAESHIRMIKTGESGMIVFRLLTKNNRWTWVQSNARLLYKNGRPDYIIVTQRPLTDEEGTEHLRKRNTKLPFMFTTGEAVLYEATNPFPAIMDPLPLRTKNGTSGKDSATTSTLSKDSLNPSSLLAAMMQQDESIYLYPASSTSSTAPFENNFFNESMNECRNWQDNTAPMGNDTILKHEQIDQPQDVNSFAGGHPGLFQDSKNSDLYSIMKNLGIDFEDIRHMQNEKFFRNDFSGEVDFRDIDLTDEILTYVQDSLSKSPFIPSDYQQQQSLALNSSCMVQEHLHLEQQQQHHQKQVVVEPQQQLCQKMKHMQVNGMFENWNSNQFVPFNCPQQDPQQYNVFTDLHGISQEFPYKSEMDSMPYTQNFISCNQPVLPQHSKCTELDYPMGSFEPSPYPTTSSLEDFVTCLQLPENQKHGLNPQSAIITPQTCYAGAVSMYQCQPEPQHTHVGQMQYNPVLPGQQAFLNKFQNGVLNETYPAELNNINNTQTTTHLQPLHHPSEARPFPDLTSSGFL
T2 sequence (P27540 whole entry partner): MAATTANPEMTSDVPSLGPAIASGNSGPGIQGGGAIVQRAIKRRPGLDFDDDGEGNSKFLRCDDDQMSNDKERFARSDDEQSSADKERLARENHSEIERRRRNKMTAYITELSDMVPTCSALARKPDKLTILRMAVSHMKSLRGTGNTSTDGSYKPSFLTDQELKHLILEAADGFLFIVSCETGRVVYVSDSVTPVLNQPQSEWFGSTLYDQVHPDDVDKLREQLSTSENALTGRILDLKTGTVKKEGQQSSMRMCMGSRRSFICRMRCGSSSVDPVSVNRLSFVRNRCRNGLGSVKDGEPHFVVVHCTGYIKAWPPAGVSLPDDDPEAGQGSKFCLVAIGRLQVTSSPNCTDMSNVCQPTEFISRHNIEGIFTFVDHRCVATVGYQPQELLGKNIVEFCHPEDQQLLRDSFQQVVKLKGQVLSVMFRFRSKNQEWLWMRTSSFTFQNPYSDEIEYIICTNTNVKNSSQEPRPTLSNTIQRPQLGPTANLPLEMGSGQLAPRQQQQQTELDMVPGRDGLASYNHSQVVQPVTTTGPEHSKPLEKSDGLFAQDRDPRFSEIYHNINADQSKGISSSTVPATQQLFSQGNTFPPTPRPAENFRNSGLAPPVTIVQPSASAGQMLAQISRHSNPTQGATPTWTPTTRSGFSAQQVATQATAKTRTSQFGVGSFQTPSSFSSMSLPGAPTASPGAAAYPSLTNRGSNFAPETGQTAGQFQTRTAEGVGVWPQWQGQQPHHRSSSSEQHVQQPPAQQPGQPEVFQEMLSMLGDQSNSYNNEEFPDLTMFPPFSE

| Compound | pIC50 (CDK1/cyclin B; [4]) | pIC50 (GSK-3α/β; [5]) | pIC50 (GSK-3α/β; [6]) | pIC50 (CDK5/p25; [7]) | pIC50 (CDK1/cyclin B; [8]) | pEC50 (AhR [1]) | also measured |
| --- | --- | --- | --- | --- | --- | --- | --- |
| CC(=O)ON=C1C(=C2C(=O)Nc3cc(Cl)c(Cl)cc32)Nc2ccccc21 [8e, 5,6Dichloroindirubin-3′-acetoxime] | 4.52 | 8.40 | 8.40 | 7.00 | – | – | – |
| O=C1Nc2cc(Br)ccc2/C1=C1/Nc2cc(Br)ccc2C1=O [12b, 6,6′-Dibromoindirubin] | < 4.00 | 5.35 | 5.35 | < 4.00 | < 4.00 | < 5.00 | pIC50 (CDK1/cyclin B; Table 1, read-out: IC50 CDK1/cyclin B): ≤ 4.00; pIC50 (GSK-3α/β; Table 1, read-out: IC50 GSK-3 α/β): 5.35; pIC50 (GSK-3α/β; Table 4, read-out: IC50 GSK-3): 5.35; pIC50 (GSK-3α/β; read-out: IC50 with GSK-3): 5.35; pIC50 (CDK5/p25; [9]): < 4.00; pIC50 (CDK5/p25; read-out: IC50 with CDK5): < 4.00 |
| Cc1cc2c(cc1Br)NC(=O)C2=C1Nc2ccccc2C1=NO [7f, 6-Bromo-5-methylindirubin-3′-oxime] | – | – | – | 6.89 | – | – | – |
| O=C1Nc2cc(F)ccc2C1=C1Nc2ccccc2C1=NO [7b, 6-Fluoroindirubin-3′-oxime] | 6.49 | 6.89 | 6.89 | 6.82 | – | – | – |
| 6-Chloroindirubin [5d] | < 4.00 | – | – | < 4.00 | < 4.00 | 8.15 | pEC50 (AhR [2]): 7.52 |
| O=C1Nc2cc(Cl)c(Cl)cc2/C1=C1/Nc2ccccc2C1=O [5e, 5,6-Dichloroindirubin] | 4.35 | 7.52 | 7.52 | 4.22 | – | – | – |
| O=C1Nc2cccc(Cl)c2/C1=C1/Nc2ccccc2C1=O [compound 6, 4-Chloroindirubin] | 5.00 | < 4.00 | – | 5.00 | 5.00 | 6.51 | pEC50 (AhR [2]): < 7.00; pIC50 (GSK-3α/β; Table 4, read-out: IC50 GSK-3): < 4.00 |
| O=C1Nc2cc(Br)c([N+](=O)[O-])cc2C1=C1Nc2ccccc2C1=O [5g, 6-Bromo-5-nitroindirubin] | < 4.00 | 7.00 | 7.00 | < 4.00 | – | – | – |
| CC(=O)O/N=C1/C(=C2/C(=O)Nc3cc(Cl)ccc32)Nc2ccccc21 [8d, 6-Chloroindirubin-3′-acetoxime] | 4.52 | 7.77 | 7.77 | 6.70 | – | – | – |
| CC(=O)O/N=C1/C(=C2/C(=O)Nc3cc(I)ccc32)Nc2ccccc21 [8c, 6-Iodoindirubin-3′-acetoxime] | 5.66 | 7.89 | – | 5.89 | – | – | – |
| O=C1Nc2cc(I)ccc2/C1=C1/Nc2ccccc2C1=O [5c, 6-Iodoindirubin] | 5.80 | 7.26 | 7.26 | 5.28 | 5.80 | 7.77 | pEC50 (AhR [2]): 7.40; pIC50 (GSK-3α/β; Table 4, read-out: IC50 GSK-3): 7.26 |
| Nc1ccc2c(c1)/C(=C1/Nc3ccccc3C1=NO)C(=O)N2 [compound 24, 5-Amino-3′-oxime indirubin] | – | – | – | – | – | – | IC50 (GSK-3α/β; Table 6, read-out: GSK-3 (IC50 μM)): 0.75 µM; IC50 (CDK5/p25; Table 6, read-out: CDK-5 (IC50 μM)): 0.47 µM |
| O=C1Nc2cc(Br)c([N+](=O)[O-])cc2C1=C1Nc2ccccc2C1=NO [7g, 6-Bromo-5-nitroindirubin-3′-oxime] | – | – | – | 6.82 | – | – | – |
| O=C1Nc2ccc(I)cc2/C1=C1/Nc2ccccc2C1=O [compound 18, 5-iodo-indirubin, reference compound] | – | – | – | – | 6.66 | – | pEC50 (AhR [3]): 7.52 |
| CN1C(=O)/C(=C2\Nc3ccccc3C2=O)c2ccccc21 [12d, 1-Methylindirubin] | < 4.00 | < 4.00 | – | < 4.00 | < 4.00 | 6.08 | pEC50 (AhR [2]): 8.22; pIC50 (GSK-3α/β; Table 4, read-out: IC50 GSK-3): < 4.00 |
| O=C1Nc2ccccc2/C1=C1/Nc2ccccc2C1=O [5h, indirubin] | – | – | – | – | – | 7.23 | pEC50 (AhR [3]): 8.22 |
| CON=C1C(=C2C(=O)Nc3ccccc32)Nc2ccccc21 [9b, Indirubin-3′-methoxime] | – | – | – | 6.40 | – | – | – |
| O=C1Nc2cc(Br)ccc2C1=C1Nc2ccccc2C1=O [5a, 6-Bromoindirubin] | – | – | – | 4.28 | – | 8.10 | pEC50 (AhR [2]): 7.70; pIC50 (CDK5/p25; [9]): 4.28 |
| Cc1cc2c(cc1Br)NC(=O)C2=C1Nc2ccccc2C1=O [5f, 6-Bromo-5-methylindirubin] | 4.52 | 7.60 | 7.60 | 4.22 | – | – | – |
